Reference: patent US20240425524A1, “SPIROTRICYCLE RIPK1 INHIBITORS AND METHODS OF USES THEREOF” (Merck Sharp & Dohme LLC, priority 2021, published 2024)

What follows are molecules tested against RIPK1 (Homo sapiens (Human), UniProt Q13546) (assay: RIPK1-ADP-Glo Enzymatic Assay). Details: recombinant GST-RIPK1 kinase domain (residues 1-327), 25 nM, ten-point titration, 30 minutes pre-incubation.
Type: biochemical
How it was run: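 GST-RIPK1 kinase domain (residues 1-327, Sf21-expressed; 25 nM final) was pre-incubated 30 min at ambient temperature with compound (10-point 1:3 series from 100000 nM, 1% DMSO) in HEPES pH 7.3 buffer with 20 mM MgCl2. The reaction was started with 900 μM ATP (addition solution) and 3 μM dephosphorylated MBP and ran 150 min. Read-out was ADP-Glo luminescence, with EC50 from a four-parameter fit.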

Chain of RIPK1 (Q13546 1-327): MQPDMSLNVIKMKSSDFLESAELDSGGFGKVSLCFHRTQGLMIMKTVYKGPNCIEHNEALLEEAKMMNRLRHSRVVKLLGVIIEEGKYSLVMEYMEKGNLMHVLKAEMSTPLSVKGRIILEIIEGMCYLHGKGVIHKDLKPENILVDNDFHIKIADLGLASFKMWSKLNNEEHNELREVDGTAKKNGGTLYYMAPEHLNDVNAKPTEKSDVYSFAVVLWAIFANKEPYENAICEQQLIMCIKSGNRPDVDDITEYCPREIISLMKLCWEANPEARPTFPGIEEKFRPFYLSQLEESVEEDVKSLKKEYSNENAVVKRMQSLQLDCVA

Compound	EC50
COc1nccc(N2CCC3(CC2)CN2CC[C@@H](c4cc(F)cc(F)c4)N2C3=O)n1 [Example 1.84, (S)-7′-(3,5-difluorophenyl)-1-(2-methoxypyrimidin-4-yl)dihydro-1′H,3′H,5′H-spiro[piperidine-4,2′-pyrazolo[1,2-a]pyrazol]-1′-one]	30 nM
COc1nc(N2CCC3(CC2)CN2CC[C@@H](c4cc(F)cc(F)c4)N2C3=O)ncc1F [Example 1.85, (S)-7′-(3,5-difluorophenyl)-1-(5-fluoro-4-methoxypyrimidin-2-yl)dihydro-1′H,3′H,5′H-spiro[piperidine-4,2′-pyrazolo[1,2-a]pyrazol]-1′-one]	22 nM
CNC(=O)c1cc(N2CCC3(CC2)CN2CC[C@@H](c4cc(F)cc(F)c4)N2C3=O)ncn1 [Example 1.86, (S)-6-(7′-(3,5-difluorophenyl)-1′-oxodihydro-1′H,3′H,5′H-spiro[piperidine-4,2′-pyrazolo[1,2-a]pyrazol]-1-yl)-N-methylpyrimidine-4-carboxamide]	555 nM
O=C1N2[C@H](c3cc(F)cc(F)c3)CCN2CC12CCN(c1cc(-c3cnn(C(F)F)c3)ncn1)CC2 [Example 1.87, (S)-1-(6-(1-(difluoromethyl)-1H-pyrazol-4-yl)pyrimidin-4-yl)-7′-(3,5-difluorophenyl)dihydro-1′H,3′H,5′H-spiro[piperidine-4,2′-pyrazolo[1,2-a]pyrazol]-1′-one]	6 nM
CN(C)C(=O)c1ccnc(N2CCC3(CC2)CN2CC[C@@H](c4cc(F)cc(F)c4)N2C3=O)n1 [Example 1.88, (S)-2-(7′-(3,5-difluorophenyl)-1′-oxodihydro-1′H,3′H,5′H-spiro[piperidine-4,2′-pyrazolo[1,2-a]pyrazol]-1-yl)-N,N-dimethylpyrimidine-4-carboxamide]	111 nM
COc1cc(N2CCC3(CC2)CN2CC[C@@H](c4cc(F)cc(F)c4)N2C3=O)ccn1 [Example 1.89, (S)-7′-(3,5-difluorophenyl)-1-(2-methoxypyridin-4-yl)dihydro-1′H,3′H,5′H-spiro[piperidine-4,2′-pyrazolo[1,2-a]pyrazol]-1′-one]	24 nM
CNC(=O)c1ccnc(N2CCC3(CC2)CN2CC[C@@H](c4cc(F)cc(F)c4)N2C3=O)n1 [Example 1.90, (S)-2-(7′-(3,5-difluorophenyl)-1′-oxodihydro-1′H,3′H,5′H-spiro[piperidine-4,2′-pyrazolo[1,2-a]pyrazol]-1-yl)-N-methylpyrimidine-4-carboxamide]	106 nM
Cn1cnc(N2CCC3(CC2)CN2CC[C@@H](c4cc(F)cc(F)c4)N2C3=O)cc1=O [Example 1.91, (S)-7′-(3,5-difluorophenyl)-1-(1-methyl-6-oxo-1,6-dihydropyrimidin-4-yl)dihydro-1′H,3′H,5′H-spiro [piperidine-4,2′-pyrazolo[1,2-a]pyrazol]-1′-one]	750 nM
O=C1N2[C@H](c3cc(F)cc(F)c3)CCN2CC12CCN(c1nccc(C(F)(F)F)n1)CC2 [Example 1.92, (S)-7′-(3,5-difluorophenyl)-1-(4-(trifluoromethyl)pyrimidin-2-yl)dihydro-1′H,3′H,5′H-spiro[piperidine-4,2′-pyrazolo[1,2-a]pyrazol]-1′-one]	91 nM
Cn1cc(-c2cc(N3CCC4(CC3)CN3CC[C@@H](c5cc(F)cc(F)c5)N3C4=O)ncn2)cn1 [Example 1.93, (S)-7′-(3,5-difluorophenyl)-1-(6-(1-methyl-1H-pyrazol-4-yl)pyrimidin-4-yl)dihydro-1′H,3′H,5′H-spiro[piperidine-4,2′-pyrazolo[1,2-a]pyrazol]-1′-one]	17 nM
O=C1N2[C@H](c3cc(F)cc(F)c3)CCN2CC12CCN(c1cc(C(F)(F)F)ncn1)CC2 [Example 1.94, (S)-7′-(3,5-difluorophenyl)-1-(6-(trifluoromethyl)pyrimidin-4-yl)dihydro-1′H,3′H,5′H-spiro[piperidine-4,2′-pyrazolo[1,2-a]pyrazol]-1′-one]	85 nM
COc1ccnc(N2CCC3(CC2)CN2CC[C@@H](c4cc(F)cc(F)c4)N2C3=O)n1 [Example 1.95, (S)-7′-(3,5-difluorophenyl)-1-(4-methoxypyrimidin-2-yl)dihydro-1′H,3′H,5′H-spiro[piperidine-4,2′-pyrazolo[1,2-a]pyrazol]-1′-one]	86 nM
O=C1N2[C@H](c3cc(F)cc(F)c3)CCN2CC12CCN(c1cnnc(Cl)c1)CC2 [Example 1.96, (S)-1-(6-chloropyridazin-4-yl)-7′-(3,5-difluorophenyl)dihydro-1′H,3′H,5′H-spiro[piperidine-4,2′-pyrazolo[1,2-a]pyrazol]-1′-one]	571 nM
O=C1N2[C@H](c3cc(F)cc(F)c3)CCN2CC12CCN(c1ccc(Br)c3ccnn13)CC2 [Example 2.1]	7.5 nM
N#Cc1ccc(N2CCC3(CC2)CN2CC[C@@H](c4cc(F)cc(F)c4)N2C3=O)c2ccnn12 [Example 2.2, (S)-4-(7′-(3,5-difluorophenyl)-1′-oxodihydro-l′H,3′H,5′H-spiro[piperidine-4,2′-pyrazolo[1,2-a]pyrazol]-1-yl)pyrazolo[1,5-a]pyridine-7-carbonitrile]	9 nM
Cc1cc(N2CCC3(CC2)CN2CC[C@@H](c4cc(F)cc(F)c4)N2C3=O)ccn1 [Example 2.3, (S)-7′-(3,5-difluorophenyl)-1-(2-methylpyridin-4-yl)dihydro-l′H,3′H,5′H-spiro[piperidine-4,2′-pyrazolo[1,2-a]pyrazol]-1′-one]	501 nM
N#Cc1cc(N2CCC3(CC2)CN2CC[C@@H](c4cc(F)cc(F)c4)N2C3=O)ccn1 [Example 2.4, (S)-4-(7′-(3,5-difluorophenyl)-1′-oxodihydro-l′H,3′H,5′H-spiro[piperidine-4,2′-pyrazolo[1,2-a]pyrazol]-1-yl)picolinonitrile]	49 nM
Cc1ccn(-c2ccnc(N3CCC4(CC3)CN3CC[C@@H](c5cc(F)cc(F)c5)N3C4=O)c2)n1 [Example 2.5, (S)-7′-(3,5-difluorophenyl)-1-(4-(3-methyl-1H-pyrazol-1-yl)pyridin-2-yl)dihydro-1′H,3′H,5′H-spiro[piperidine-4,2′-pyrazolo[1,2-a]pyrazol]-1′-one]	118 nM
O=C1N2[C@H](c3cc(F)cc(F)c3)CCN2CC12CCN(c1noc3ccccc13)CC2 [Example 2.6, (S)-1-(benzo[d]isoxazol-3-yl)-7′-(3,5-difluorophenyl)dihydro-1′H,3′H,5′H-spiro[piperidine-4,2′-pyrazolo[1,2-a]pyrazol]-1′-one]	145 nM
O=C1N2[C@H](c3cc(F)cc(F)c3)CCN2CC12CCN(c1ccnc3ccccc13)CC2 [Example 2.7, (S)-7′-(3,5-difluorophenyl)-1-(quinolin-4-yl)dihydro-1′H,3′H,5′H-spiro[piperidine-4,2′-pyrazolo[1,2-a]pyrazol]-1′-one]	24 nM
Cc1ccc2c(N3CCC4(CC3)CN3CC[C@@H](c5cc(F)cc(F)c5)N3C4=O)ccnc2c1 [Example 2.8, (S)-7′-(3,5-difluorophenyl)-1-(7-methylquinolin-4-yl)dihydro-l′H,3′H,5′H-spiro[piperidine-4,2′-pyrazolo[1,2-a]pyrazol]-1′-one]	24 nM
O=C1N2[C@H](c3cc(F)cc(F)c3)CCN2CC12CCN(c1ncc(F)cc1C(F)F)CC2 [Example 2.9, (S)-1-(3-(difluoromethyl)-5-fluoropyridin-2-y1)-7′-(3,5-difluorophenyl)dihydro-l′H,3′H,5′H-spiro[piperidine-4,2′-pyrazolo[1,2-a]pyrazol]-1′-one]	792 nM
O=C1N2[C@H](c3cc(F)cc(F)c3)CCN2CC12CCN(c1ccnc3ccnn13)CC2 [Example 2.10, (S)-7′-(3,5-difluorophenyl)-1-(pyrazolo[1,5-a]pyrimidin-7-yl)dihydro-1′H,3′H,5′H-spiro[piperidine-4,2′-pyrazolo[1,2-a]pyrazol]-1′-one]	33 nM
O=C1N2[C@H](c3cc(F)cc(F)c3)CCN2CC12CCN(c1nccn3nccc13)CC2 [Example 2.11, (S)-7′-(3,5-difluorophenyl)-1-(pyrazolo[1,5-a]pyrazin-4-y1)dihydro-l′H,3′H,5′H-spiro[piperidine-4,2′-pyrazolo[1,2-a]pyrazol]-1′-one]	34 nM
O=C1N2[C@H](c3cc(F)cc(F)c3)CCN2CC12CCN(c1cccc(-n3nccc3C(F)(F)F)n1)CC2 [Example 2.12, (S)-7′-(3,5-difluorophenyl)-1-(6-(5-(trifluoromethyl)-1H-pyrazol-1-y1)pyridin-2-yl)dihydro-l′H,3′H,5′H-spiro[piperidine-4,2′-pyrazolo[1,2-a]pyrazol]-1′-one]	6 nM
Cc1ccn(-c2cccc(N3CCC4(CC3)CN3CC[C@@H](c5cc(F)cc(F)c5)N3C4=O)n2)n1 [Example 2.13, (S)-7′-(3,5-difluorophenyl)-1-(6-(3-methyl-1H-pyrazol-1-yl)pyridin-2-yl)dihydro-1′H,3′H,5′H-spiro[piperidine-4,2′-pyrazolo[1,2-a]pyrazol]-1′-one]	17 nM
Cc1cnn(-c2cnc(N3CCC4(CC3)CN3CC[C@@H](c5cc(F)cc(F)c5)N3C4=O)cn2)c1 [Example 2.15, (S)-7′-(3,5-difluorophenyl)-1-(5-(4-methyl-1H-pyrazol-1-yl)pyrazin-2-yl)dihydro-l′H,3′H,5′H-spiro[piperidine-4,2′-pyrazolo[1,2-a]pyrazol]-1′-one]	80 nM
O=C1N2[C@H](c3cc(F)cc(F)c3)CCN2CC12CCN(c1cnc(-c3ccccc3Cl)cn1)CC2 [Example 2.16, (S)-1-(5-(2-chlorophenyl)pyrazin-2-y1)-7′-(3,5-difluorophenyl)dihydro-1′H,3′H,5′H-spiro[piperidine-4,2′-pyrazolo[1,2-a]pyrazol]-1′-one]	25 nM
O=C1N2[C@H](c3cc(F)cc(F)c3)CCN2CC12CCN(c1cnc(-c3cccc(Cl)c3)cn1)CC2 [Example 2.17, (S)-1-(5-(3-chlorophenyl)pyrazin-2-yl)-7′-(3,5-difluorophenyl)dihydro-1′H,3′H,5′H-spiro[piperidine-4,2′-pyrazolo[1,2-a]pyrazol]-1′-one]	96 nM
